The values below come from article PMC4160273 (Journal of the American Chemical Society, 2014).

In general, pKa refers to the negative logarithm of the acid dissociation constant.

Where two headings read alike, the source gives them in different places.

For series [1] the following is noted: thiol, cited from earlier work.
Another series has as its target RSK2 CTD (Mus musculus, UniProt P18654). Conditions: after 4 hours, guanidine.
Another series has as its system endogenous RSK1 and RSK2. The series is described as follows: RSK1/2 occupancy in MDA-MB-231 cells by competitive labeling with BODIPY-FMK. Conditions: 0.1 and 1.0 μM, 2 h. Format: cell-based.

For `OCCS` [BME, β-mercaptoethanol], the pKa in series [1] (ref [34]) is recorded as 9.6.

Take `COc1cc(-c2n[nH]c3ccc(C=C(C#N)n4cccn4)cc23)cc(OC)c1OC` [S3]: the “% dissociation / recovered from RSK2 after unfolding” value at RSK2 CTD is ~ 2%.

Consider `Cc1ccc(-c2c(C=C(C#N)c3ccncc3)n(CCCO)c3ncnc(N)c23)cc1` [compound 17], for which the “Labeling of RSK1/2 by BODIPY-FMK in pretreated cells” value in the series on endogenous RSK1 and RSK2 was “less effective”.

Turning to `NCCS` [cysteamine], the pKa in series [1] (ref [36]) is listed as 8.4.
